What was measured:
MV4-11 = experiment: Antileukemic activity against human MV4-11 cells assessed as inhibition of cell proliferation by MTS assay; type: functional, cell-based
THP-1 = experiment: Antileukemic activity against human THP-1 cells assessed as inhibition of cell proliferation by MTS assay; type: functional, cell-based
[1] = Cytotoxicity against PBMC (unknown origin) assessed as cell survival at 20 uM relative to control; type: toxicity, cell-based; conditions: read-out: Survival

SMILES | IC50 (MV4-11) | IC50 (THP-1) | viability at 20 µM [1]
CC1CCN(C(=O)Nc2ncc(Cc3ccc(Br)cc3)s2)CC1 | 1.49 µM | 1.39 µM | –
COc1ccc(Cc2cnc(NC(=O)N3C4CC[C@@H]3CN(c3ccc(Cl)cc3)C4)s2)cc1 | 0.31 µM | 0.29 µM | –
O=C(Nc1ncc(Cc2ccc(Br)cc2)s1)N1CCN(c2ccc(O)cc2)CC1 | > 20 µM | > 20 µM | –
O=C(Nc1ncc(Cc2ccc(Cl)cc2)s1)N1CCN(c2ccc(Cl)cc2)CC1 | 0.21 µM | 0.17 µM | –
O=C(Nc1ncc(Cc2cccc(OCCCN3CCOCC3)c2)s1)N1CCN(c2ccc(Cl)cc2)CC1 | > 20 µM | > 20 µM | –
CCOc1cccc(Cc2cnc(NC(=O)N3CCN(c4ccc(Cl)cc4)CC3)s2)c1 | > 20 µM | > 20 µM | –
O=C(Nc1ncc(Cc2ccc(C(F)(F)F)cc2)s1)N1CCN(c2ccc(Cl)cc2)CC1 | 0.23 µM | 0.18 µM | –
COc1ccc(Cc2cnc(NC(=O)N3CCCN(c4ccc(Cl)cc4)CC3)s2)cc1 | 0.31 µM | 0.27 µM | –
Nc1ccn([C@@H]2O[C@H](CO)[C@@H](O)[C@@H]2O)c(=O)n1 [CYTARABINE] | – | 0.46 µM | –
CC1CCN(C(=O)Nc2ncc(Cc3ccccc3Br)s2)CC1 | 1.89 µM | 3.84 µM | –
Cc1ccc(N2CCN(C(=O)Nc3ncc(Cc4ccc(Br)cc4)s3)CC2)cc1 | 1.11 µM | 1.78 µM | –
O=C(Nc1ncc(Cc2ccccc2Cl)s1)N1CCN(c2ccc(Cl)cc2)CC1 | 0.16 µM | 1.11 µM | –
O=C(Nc1ncc(Cc2cccc(Br)c2)s1)N1CC2CC1CN2c1ccc(Cl)cc1 (configuration not stated) | 11.1 µM | > 20 µM | –
O=C(Nc1ncc(Cc2ccccc2Br)s1)N1CCN(c2ccc(Cl)cc2)CC1 | 1.12 µM | 1.3 µM | –
CC(C)Oc1cccc(Cc2cnc(NC(=O)N3CCN(c4ccc(Cl)cc4)CC3)s2)c1 | > 20 µM | > 20 µM | –
CCc1nc(C(N)=O)c(Nc2ccc(N3CCC(N4CCN(C)CC4)CC3)c(OC)c2)nc1NC1CCOCC1 [GILTERITINIB] | 0.024 µM | – | –
O=C(Nc1ncc(Cc2ccccc2C(F)(F)F)s1)N1CCN(c2ccc(Cl)cc2)CC1 | 4.99 µM | > 20 µM | –
O=C(Nc1ncc(Cc2cccc(C(F)(F)F)c2)s1)N1CCN(c2ccc(Cl)cc2)CC1 | 0.3 µM | 0.37 µM | –
COc1ccccc1Cc1cnc(NC(=O)N2CCN(c3ccc(Cl)cc3)CC2)s1 | 0.19 µM | 0.36 µM | –
O=C(Nc1ncc(Cc2cccc(Br)c2)s1)N1CCN(c2cc(C(F)(F)F)cc(C(F)(F)F)c2)CC1 | > 20 µM | > 20 µM | –
CC1CN(C(=O)Nc2ncc(Cc3cccc(Br)c3)s2)CCN1c1ccc(Cl)cc1 (configuration not stated) | 14.8 µM | > 20 µM | –
CC1CCN(C(=O)Nc2ncc(Cc3cccc(Br)c3)s2)CC1 | 2.41 µM | 3.24 µM | –
Cc1ccc(N2CCN(C(=O)Nc3ncc(Cc4ccccc4Br)s3)CC2)cc1 | 2.8 µM | 9.58 µM | –
O=C(Nc1ncc(Cc2cccc(Br)c2)s1)N1C2CC[C@@H]1CN(c1ccc(Cl)cc1)C2 | 9.73 µM | > 20 µM | –
O=C(Nc1ncc(Cc2ccccc2Br)s1)N1CCN(c2ccccc2)CC1 | 1.46 µM | 2.41 µM | –
COc1ccc(Cc2cnc(NC(=O)N3CCN(c4ccc(Cl)cc4)CC3)s2)cc1 | 0.098 µM | 0.029 µM | 91.7%

The next lines start with results.

IC50 (MV4-11) | IC50 (THP-1) | SMILES | viability at 20 µM [1]
> 20 µM | > 20 µM | O=C(Nc1ncc(Cc2cccc(Br)c2)s1)N1CCN(c2cccc(F)n2)CC1 | –
1.85 µM | 4.05 µM | O=C(Nc1ncc(Cc2ccc(Br)cc2)s1)N1CCN(c2ccccc2)CC1 | –
> 20 µM | > 20 µM | O=C(Nc1ncc(Cc2cccc(Br)c2)s1)N1CCN(c2cc(Cl)cc(Cl)c2)CC1 | –
9.98 µM | > 20 µM | O=C(Nc1ncc(Cc2cccc(Br)c2)s1)N1CCN(c2cccc(Cl)c2)CC1 | –
> 20 µM | > 20 µM | O=C(Nc1ncc(Cc2cccc(Br)c2)s1)N1CCN(c2cccc(Br)n2)CC1 | –
> 20 µM | > 20 µM | Cc1cccc(N2CCN(C(=O)Nc3ncc(Cc4cccc(Br)c4)s3)CC2)n1 | –
4.5 µM | > 20 µM | O=C(Nc1ncc(Cc2cccc(Br)c2)s1)N1CCN(c2ccc(C(F)(F)F)cc2)CC1 | –
> 20 µM | > 20 µM | O=C(Nc1ncc(Cc2cccc(Br)c2)s1)N1CCN(Cc2ccc(Cl)cc2)CC1 | –
0.39 µM | 0.2 µM | O=C(Nc1ncc(Cc2cccc(Cl)c2)s1)N1CCN(c2ccc(Cl)cc2)CC1 | –
0.62 µM | 0.68 µM | O=C(Nc1ncc(Cc2cccc(Br)c2)s1)N1CCN(c2ccc(Cl)cn2)CC1 | –
0.14 µM | 0.11 µM | O=C(Nc1ncc(Cc2cccc(O)c2)s1)N1CCN(c2ccc(Cl)cc2)CC1 | –
0.55 µM | 0.37 µM | O=C(Nc1ncc(Cc2ccc(Br)cc2)s1)N1CCN(c2ccc(Cl)cc2)CC1 | –
2.05 µM | > 20 µM | O=C(Nc1ncc(Cc2cccc(Br)c2)s1)N1CCN(c2ccc([N+](=O)[O-])cc2)CC1 | –
> 20 µM | > 20 µM | O=C(Nc1ncc(Cc2cccc(Br)c2)s1)N1CCN(S(=O)(=O)c2ccc(Cl)cc2)CC1 | –
5.31 µM | > 20 µM | Cc1ccnc(N2CCN(C(=O)Nc3ncc(Cc4cccc(Br)c4)s3)CC2)c1 | –
> 20 µM | > 20 µM | O=C(Nc1ncc(Cc2cccc(Br)c2)s1)N1CCN(C(=O)c2ccc(Cl)cc2)CC1 | –
> 20 µM | > 20 µM | O=C(Nc1ncc(Cc2cccc(Br)c2)s1)N1CCCN(c2ccc(Cl)cc2)CC1 | –
> 20 µM | > 20 µM | O=C(Nc1ncc(Cc2cccc(Br)c2)s1)N1CCN(c2cccc(C(F)(F)F)n2)CC1 | –
16.8 µM | > 20 µM | O=C(Nc1ncc(Cc2cccc(Br)c2)s1)N1CCN(c2cccc(Cl)n2)CC1 | –
1.31 µM | 4.08 µM | O=C(Nc1ncc(Cc2cccc(Br)c2)s1)N1CCN(c2ccccc2)CC1 | –
0.26 µM | 0.33 µM | O=C(Nc1ncc(Cc2cccc(Br)c2)s1)N1CCN(c2ccc(Cl)cc2)CC1 | –
0.17 µM | 0.19 µM | O=C(Nc1ncc(Cc2cccc(Br)c2)s1)N1CCN(c2ccc(F)cc2)CC1 | –
0.89 µM | 0.66 µM | N#Cc1ccc(N2CCN(C(=O)Nc3ncc(Cc4cccc(Br)c4)s3)CC2)cc1 | –
2.88 µM | 3.48 µM | Cc1ccc(N2CCN(C(=O)Nc3ncc(Cc4cccc(Br)c4)s3)CC2)cc1 | –
0.21 µM | > 20 µM | Cc1cccc(Cc2cnc(NC(=O)N3CCN(c4ccc(Cl)cc4)CC3)s2)c1 | –
1.32 µM | 1.61 µM | O=C(Nc1ncc(Cc2cccc(Br)c2)s1)N1CCN(c2ccccc2Cl)CC1 | –
0.13 µM | 0.21 µM | COc1cccc(Cc2cnc(NC(=O)N3CCN(c4ccc(Cl)cc4)CC3)s2)c1 | –
0.13 µM | 0.13 µM | COCc1cccc(Cc2cnc(NC(=O)N3CCN(c4ccc(Cl)cc4)CC3)s2)c1 | –

Source: ChEMBL document CHEMBL6087417, “The synthesis and antileukemic activity of 5-substituted thiazolyl urea derivatives” (Bioorg Med Chem Lett, 2025)
